Series [1] can be described thus: Comparison of solubilities (saturated concentration by HPLC). It is filed as physicochemical. The following applies: for solubility thermodynamic at 16 h: thermodynamic from solid. How it is done: The thus-obtained ursolic acid phosphate was compared to ursolic acid (control) on their solubilities. The mixture was stirred for 16 hours and was passed through a 0.45-μm filter. After that, concentration measurement was performed by HPLC.

Series [2] concerns Hartley white guinea pigs. Description: Guinea pig maximization test (skin sensitivity). It is filed as in vivo. The following applies: challenge 5%, 0.5%, Draize criteria. How it is done: A guinea pig maximization test was performed using ten Hartley white guinea pigs to examine the presence or absence of the skin sensitivity of ursolic acid phosphate to the guinea pigs. An emulsified product containing distilled water and Freund's complete adjuvant (FCA) in equal volumes, a test substance (dissolved in olive oil, 5%), and a mixture including a test substance and FCA in equal volumes were separately injected intracutaneously to five guinea pigs in two sites with 0.1 mL, respectively. The next day, the hair of the intracutaneous injection sites was shaved, and a mixture of 10% sodium lauryl sulfate/petrolatum was applied thereto. The day after that, 0.1 ml of 5% ursolic acid phosphate (dissolved in olive oil) was applied with a patch for 48 hours to the shaved sites to complete induction of sensitization. After completion of induction of sensitization, a 10-day rest period was provided. After completion of the period, the hair in back untreated sites was shaved. Then, each of 0.1 ml of 5%, 0.5%, and 0% ursolic acid phosphate (dissolved in olive oil) was applied with a patch for 24 hours to respective three sites to […]. Thirty minutes and 24 hours after patch removal, skin reactions were observed. […]

Where two headings read alike, the source gives them in different places. Where only a bound is given, the exact number is not on record here.

Turning to `C[C@H]1[C@H](C)CC[C@]2(C(=O)O)CC[C@]3(C)C(=CC[C@@H]4[C@@]5(C)CCC(OP(=O)(O)O)C(C)(C)[C@@H]5CC[C@]43C)[C@H]12` (stereo partly shown) [ursolic acid phosphate, Ursolic acid phosphate], in series [1], the “solubility compared to that of ursolic acid” value was “improved”. In addition, the Saturated concentration in series [1] (16 h, pH 7) turned out to be 31.1 µg/mL; in series [1] (16 h, pH 9) it was 7.5 µg/mL. The solubility thermodynamic at 16 h in series [1] (pH 9, aqueous buffer) stood at 120 µg/mL; in series [1] (water), 20.1 µg/mL. Further, the “skin reactions, sample-administered group versus control group” value in series [2] (0% in olive oil, patch 24 hours) is “no differences”. Moreover, in series [2] (induction with 5% in olive oil, 0% patch 24 hours, observed 30 minutes and 24 hours after patch removal), the sensitization to skin entry is on record as “not observed”.

As for `C[C@H]1[C@H](C)CC[C@]2(C(=O)O)CC[C@]3(C)C(=CC[C@@H]4[C@@]5(C)CC[C@H](O)C(C)(C)[C@@H]5CC[C@]43C)[C@H]12` [ursolic acid, reference compound], the Saturated concentration in series [1] (Solvent 8% EtOH/0.1 M phosphate Buffer (pH7.0), stirred 16 hours, 0.45-μm filter, HPLC) is less than 1 µg/mL; in series [1] (Solvent 8% EtOH/0.1 M phosphate Buffer (pH9), stirred 16 hours, 0.45-μm filter, HPLC), less than 1 µg/mL; in series [1] (Solvent 8% EtOH/DW, stirred 16 hours, 0.45-μm filter, HPLC), less than 1 µg/mL; in series [1] (Solvent EtOH, stirred 16 hours, 0.45-μm filter, HPLC), less than 1 µg/mL. Besides, the solubility thermodynamic at 16 h in series [1] (pH 9, aqueous buffer, Solvent 0.1 M phosphate Buffer (pH9), stirred 16 hours, 0.45-μm filter, HPLC, read-out: Saturated concentration) is less than 1 µg/mL; in series [1] (water, Solvent DW, stirred 16 hours, 0.45-μm filter, HPLC, read-out: Saturated concentration), less than 1 µg/mL.
